Measurements: ChEMBL document CHEMBL1159029, “An Epoxydon-Derived Ester from a Phoma sp. Pathogenic to Rhubarb” (1992)

Columns and labels:
Penicillium chrysogenum [1] = experiment: Antimicrobial activity against Penicillium notatum AT-9479 at 0.5 mg/disk by disk assay; assay type: functional
Sorghum halepense = experiment: Phytotoxicity against Sorghum halepense assessed as brownish-black necrotic lesion area at 50 ug within 48 hrs by detached leaf assay; assay type: functional
Aspergillus flavus [2] = experiment: Antimicrobial activity against Aspergillus flavus AF3357 at 0.5 mg/disk by disk assay; assay type: functional, AF-3357
Colletotrichum acutatum [3] = experiment: Antimicrobial activity against Colletotrichum acutatum NC 1618 at 0.5 mg/disk by disk assay; assay type: functional
[4] = system: Agrobacterium tumefaciens; experiment: Antimicrobial activity against Agrobacterium tumefaciens C-58 at 1 mg/disk by disk assay; assay type: functional
Rheum rhabarbarum = experiment: Phytotoxicity against Rhubarb assessed as brownish-black necrotic lesion area at 50 ug up to 48 hrs by detached leaf assay; assay type: functional
Aspergillus flavus [5] = experiment: Antimicrobial activity against Aspergillus flavus AF3357 at 1 mg/disk by disk assay; assay type: functional, AF-3357
[6] = system: Agrobacterium tumefaciens; experiment: Antimicrobial activity against Agrobacterium tumefaciens C-58 at 0.5 mg/disk by disk assay; assay type: functional
Senna obtusifolia = experiment: Phytotoxicity against Senna obtusifolia assessed as brownish-black necrotic lesion area at 50 ug within 48 hrs by detached leaf assay; assay type: functional
Phoma = experiment: Antimicrobial activity against Phoma sp. at 0.5 mg/disk by disk assay; assay type: functional
Chenopodium album = experiment: Phytotoxicity against Chenopodium album assessed as brownish-black necrotic lesion area at 50 ug within 48 hrs by detached leaf assay; assay type: functional
Nasturtium officinale = experiment: Phytotoxicity against Nasturtium officinale assessed as brownish-black necrotic lesions area at 50 ug within 48 hrs by detached leaf assay; assay type: functional
[7] = system: Curtobacterium flaccumfaciens; experiment: Antimicrobial activity against Corynebacterium flaccumfaciens CF-20 at 0.5 mg/disk by disk assay; assay type: functional
Ipomoea = experiment: Phytotoxicity against Ipomoea sp. assessed as brownish-black necrotic lesion area at 50 ug within 48 hrs by detached leaf assay; assay type: functional
Datura stramonium = experiment: Phytotoxicity against Datura stramonium assessed as brownish-black necrotic lesion area at 50 ug within 48 hrs by detached leaf assay; assay type: functional
[8] = system: Pectobacterium carotovorum; experiment: Antimicrobial activity against Erwinia carotovora EC-14 at 0.5 mg/disk by disk assay; assay type: functional
Escherichia coli [9] = experiment: Antimicrobial activity against Escherichia coli DH 5alpha at 1 mg/disk by disk assay; assay type: functional
Sida spinosa = experiment: Phytotoxicity against Sida spinosa assessed as brownish-black necrotic lesion area at 50 ug within 48 hrs by detached leaf assay; assay type: functional
Colletotrichum acutatum [10] = experiment: Antimicrobial activity against Colletotrichum acutatum NC 1618 at 1 mg/disk by disk assay; assay type: functional
[11] = system: Curtobacterium flaccumfaciens; experiment: Antimicrobial activity against Corynebacterium flaccumfaciens CF-20 at 1 mg/disk by disk assay; assay type: functional
Penicillium chrysogenum [12] = experiment: Antimicrobial activity against Penicillium notatum AT-9479 at 1 mg/disk by disk assay; assay type: functional
Escherichia coli [13] = experiment: Antimicrobial activity against Escherichia coli DH 5alpha at 0.5 mg/disk by disk assay; assay type: functional
Sorghum bicolor = experiment: Phytotoxicity against Sorghum bicolor assessed as brownish-black necrotic lesion area at 50 ug within 48 hrs by detached leaf assay; assay type: functional
[14] = system: Pectobacterium carotovorum; experiment: Antimicrobial activity against Erwinia carotovora EC-14 at 1 mg/disk by disk assay; assay type: functional
Escherichia coli [15] = experiment: Antimicrobial activity against Escherichia coli DH 5alpha at 0.25 mg/disk by disk assay; assay type: functional
Aspergillus flavus [16] = experiment: Antimicrobial activity against Aspergillus flavus AF3357 at 0.25 mg/disk by disk assay; assay type: functional, AF-3357
Penicillium chrysogenum [17] = experiment: Antimicrobial activity against Penicillium notatum AT-9479 at 0.25 mg/disk by disk assay; assay type: functional
[18] = system: Agrobacterium tumefaciens; experiment: Antimicrobial activity against Agrobacterium tumefaciens C-58 at 0.25 mg/disk by disk assay; assay type: functional
Colletotrichum acutatum [19] = experiment: Antimicrobial activity against Colletotrichum acutatum NC 1618 at 0.25 mg/disk by disk assay; assay type: functional
[20] = system: Curtobacterium flaccumfaciens; experiment: Antimicrobial activity against Corynebacterium flaccumfaciens CF-20 at 0.25 mg/disk by disk assay; assay type: functional
[21] = system: Pectobacterium carotovorum; experiment: Antimicrobial activity against Erwinia carotovora EC-14 at 0.25 mg/disk by disk assay; assay type: functional

Cc1cccc(O)c1C(=O)O
Diameter of inhibition zone (Penicillium chrysogenum [1]): 12 mm
Activity (Sorghum halepense): 15 mm2
Diameter of inhibition zone (Aspergillus flavus [2]): 10 mm
Diameter of inhibition zone (Colletotrichum acutatum [3]): 8 mm
Diameter of inhibition zone [4]: 25 mm
Activity (Rheum rhabarbarum): 55 mm2
Diameter of inhibition zone (Aspergillus flavus [5]): 17 mm
Diameter of inhibition zone [6]: 18 mm
Activity (Senna obtusifolia): 11 mm2
Diameter of inhibition zone (Phoma): 16 mm
Activity (Chenopodium album): 27 mm2
Activity (Nasturtium officinale): 17 mm2
Diameter of inhibition zone [7]: 16 mm
Activity (Ipomoea): 15 mm2
Activity (Datura stramonium): 48 mm2
Diameter of inhibition zone [8]: 0 mm
Diameter of inhibition zone (Escherichia coli [9]): 0 mm
Activity (Sida spinosa): 23 mm2
Diameter of inhibition zone (Colletotrichum acutatum [10]): 22 mm
Diameter of inhibition zone [11]: 21 mm
Diameter of inhibition zone (Penicillium chrysogenum [12]): 18 mm
Diameter of inhibition zone (Escherichia coli [13]): 0 mm
Activity (Sorghum bicolor): 37 mm2
Diameter of inhibition zone [14]: 0 mm

O=C1C(CO)=C[C@@H](O)[C@H]2O[C@@H]12 [EPOXYDON]
Diameter of inhibition zone (Penicillium chrysogenum [1]): 10 mm
Activity (Sorghum halepense): 37 mm2
Diameter of inhibition zone (Aspergillus flavus [2]): 8 mm
Diameter of inhibition zone (Escherichia coli [15]): 18 mm
Diameter of inhibition zone (Colletotrichum acutatum [3]): 12 mm
Activity (Rheum rhabarbarum): 27 mm2
Diameter of inhibition zone [6]: 12 mm
Activity (Senna obtusifolia): 17 mm2
Activity (Chenopodium album): 62 mm2
Activity (Nasturtium officinale): 41 mm2
Diameter of inhibition zone [7]: 20 mm
Diameter of inhibition zone (Aspergillus flavus [16]): 0 mm
Activity (Ipomoea): 51 mm2
Activity (Datura stramonium): 31 mm2
Diameter of inhibition zone [8]: 17 mm
Activity (Sida spinosa): 25 mm2
Diameter of inhibition zone (Penicillium chrysogenum [17]): 0 mm
Diameter of inhibition zone [18]: 10 mm
Diameter of inhibition zone (Escherichia coli [13]): 25.3 mm
Activity (Sorghum bicolor): 31 mm2
Diameter of inhibition zone (Colletotrichum acutatum [19]): 10 mm
Diameter of inhibition zone [20]: 12 mm
Diameter of inhibition zone [21]: 9 mm

CC1=C[C@@H](O)[C@H]2O[C@H]2C1=O [DESOXYEPOXYDON]
Diameter of inhibition zone (Penicillium chrysogenum [1]): 27 mm
Activity (Sorghum halepense): 30 mm2
Diameter of inhibition zone (Aspergillus flavus [2]): 22 mm
Diameter of inhibition zone (Escherichia coli [15]): 35 mm
Diameter of inhibition zone (Colletotrichum acutatum [3]): 60 mm
Activity (Rheum rhabarbarum): 42 mm2
Diameter of inhibition zone [6]: 56 mm
Activity (Senna obtusifolia): 51 mm2
Diameter of inhibition zone (Phoma): 30 mm
Activity (Chenopodium album): 57 mm2
Activity (Nasturtium officinale): 34 mm2
Diameter of inhibition zone [7]: 49 mm
Diameter of inhibition zone (Aspergillus flavus [16]): 15 mm
Activity (Ipomoea): 64 mm2
Activity (Datura stramonium): 73 mm2
Diameter of inhibition zone [8]: 45 mm
Activity (Sida spinosa): 74 mm2
Diameter of inhibition zone (Penicillium chrysogenum [17]): 15 mm
Diameter of inhibition zone [18]: 43 mm
Diameter of inhibition zone (Escherichia coli [13]): 44 mm
Activity (Sorghum bicolor): 69 mm2
Diameter of inhibition zone (Colletotrichum acutatum [19]): 40 mm
Diameter of inhibition zone [20]: 38 mm
Diameter of inhibition zone [21]: 31 mm

Cc1cccc(O)c1C(=O)O[C@@H]1C(=O)C(CO)=C[C@@H](O)[C@H]1O
Activity (Sorghum halepense): 7 mm2
Activity (Rheum rhabarbarum): 18 mm2
Activity (Senna obtusifolia): 33 mm2
Activity (Chenopodium album): 13 mm2
Activity (Nasturtium officinale): 44 mm2
Activity (Ipomoea): 21 mm2
Activity (Datura stramonium): 9 mm2
Activity (Sida spinosa): 24 mm2
Activity (Sorghum bicolor): 41 mm2
